The data set can be described thus: Cytotoxicity against human 16-HBE cells by CCK8 assay. Particulars: 16hbe14o-. For orientation: Formazan colour is commonly taken as a measure of viable cells.

These results are taken from ChEMBL document CHEMBL6182879, “Synthesis and biological evaluation of novel 4-Arylaminoquinolines derivatives as EGFR/HDAC inhibitors” (Bioorg Med Chem Lett, 2025).

One may read the IC50 as the concentration that inhibits the measured activity by half.

The compound `O=C(CCCCCCC(=O)Nc1ccccc1)NO` [VORINOSTAT] gave an IC50 of 50.6 µM.
